Source: patent US20190352276A1, “INHIBITORS OF BRUTON'S TYROSINE KINASE” (Joint Stock Company "Biocad", priority 2016, published 2019)

Columns and labels:
[1] = tested on: Z-138 (mantle cell lymphoma); assay: Antiproliferative activity, Z-138 cells (Alamar Blue); type: cell-based; conditions: Homo sapiens
Method in brief: (§1)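 A 72 h growth-inhibition assay using Alamar Blue fluorescence as the viability readout, with IC50 taken from a four-parameter logistic curve.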

[2] = General cytotoxicity on HepG2 cells (CC50; therapeutic index CC50 HepG2/IC50 Mino); type: cell-based; conditions: human, HepG2 cells (hepatocellular carcinoma), 72 hours, Alamar Blue
Method in brief: (§2)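 Alamar Blue viability after 72 h exposure to compounds (final 200 μM–4 μM) gave CC50; HepG2 plated 2*10^4/well in DMEM 24 h beforehand. Therapeutic index expressed as ratio of HepG2 CC50 to Mino antiproliferative IC50.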

[3] = tested on: HepG2 cells (hepatocellular carcinoma); assay: as above; type: cell-based; conditions: therapeutic index
Method in brief: as §2

TEC = biological target: T1, TEC (Homo sapiens, UniProt P42680); assay: In vitro kinase panel: TEC; type: biochemical; conditions: Table 9 kinase panel
T1 construct: purchased SignalChem T03-10G
T1 sequence (P42680 1-631): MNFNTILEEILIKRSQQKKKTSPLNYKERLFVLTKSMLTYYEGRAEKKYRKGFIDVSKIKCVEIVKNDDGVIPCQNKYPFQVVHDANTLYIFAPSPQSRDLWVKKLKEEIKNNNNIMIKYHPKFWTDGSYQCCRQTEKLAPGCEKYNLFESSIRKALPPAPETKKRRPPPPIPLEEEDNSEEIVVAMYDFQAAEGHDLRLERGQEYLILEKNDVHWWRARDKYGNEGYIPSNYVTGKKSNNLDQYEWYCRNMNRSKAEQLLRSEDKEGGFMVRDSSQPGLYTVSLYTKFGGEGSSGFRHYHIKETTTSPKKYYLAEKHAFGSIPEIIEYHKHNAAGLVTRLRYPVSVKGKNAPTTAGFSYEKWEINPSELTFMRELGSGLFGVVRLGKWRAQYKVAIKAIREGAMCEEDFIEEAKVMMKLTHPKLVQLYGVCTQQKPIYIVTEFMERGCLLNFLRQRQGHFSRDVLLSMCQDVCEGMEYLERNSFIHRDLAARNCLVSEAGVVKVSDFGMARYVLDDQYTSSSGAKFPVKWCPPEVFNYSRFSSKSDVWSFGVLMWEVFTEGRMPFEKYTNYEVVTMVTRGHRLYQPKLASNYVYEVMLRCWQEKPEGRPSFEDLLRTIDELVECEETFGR
Protocol: The measurements were carried out in a 25 μL reaction volume using a 96-well plate (Corning, #3642). The kinase enzyme and inhibitor were pre-incubated for 10 minutes in the reaction buffer containing 25 mM of MOPS (pH 7.2), 12.5 mM of 0-glycerophosphate, 27 mM of MgCl2, 2 mM of MnCl2, 5 mM of EGTA, 2 mM of EDTA, 0.3 mM of DTT, and 1.2 mg/mL of bovine serum albumin. Staurosporine (Abcam Biochemicals, ab146588) was used as a reference inhibitor and 0.1% DMSO in the reaction buffer—as a negative control. The solution of 0.5 mg/mL peptide substrate and 50 &M ATP in the same buffer were added; the solution was incubated for 180 minutes at 37° C. To detect the amount of ATP taken up during the kinase reaction, the equivalent amount of ADP (from the ADP Glo Detection Kit (Promega, #V9101)) was used according to the protocol. The reaction mixture was equilibrated to room temperature. 25 µL of ADP-Glo Reagent were added into each well; the plate was incubated for 40 minutes. 50 μL of Kinase Detection Reagent were added; the plate was incubated for 30 minutes. The luminescence was measured with multimode plate reader (Tecan Infinite M200Pro, Switzerland). IC50 values were calculated using Magellan 7.2 software (Tecan, Switzerland) approximating experimental points by four-parameter logistic model with the optimization by Levenberg-Marquardt.
For active compounds selected by screening using the target enzyme BTK, the values of IC50 were determined on a kinase panel: EGFR (SignalChem, #E10-11G), ITK (SignalChem, #I13-10G) and TEC (SignalChem, #T03-10G).

[4] = tested on: DOHH2 (follicular lymphoma); assay: Antiproliferative activity, DOHH2 cells (Alamar Blue); type: cell-based; conditions: Homo sapiens, DOHH-2, Table 10, 72 h, average of several tests
Method in brief: as §1

[5] = Table 10, 72 h, average of several tests
[6] = Table 10, average of several tests

IC50 ([1]; Table 11, 72 h)	IC50 (TEC)	IC50 [1, 5]	IC50 [4]	Structure (SMILES)	CC50 at 72 h ([2]; Table 11)	CC50 (HepG2)/IC50 (Mino) ([3]; Table 11)	CC50 at 72 h [2, 6]	CC50 (HepG2)/IC50 (Mino) ([3]; Table 10)
14.6 µM				C=CC(=O)N1CCC[C@@H](n2nc(-c3ccc(Oc4ccncc4)cc3)c3cncc(Cl)c32)C1 [BCD-BTK-125, (R)-1-(1-acryloylpiperidin-3-yl)-7-chloro-3-(4-(pyridin-4-yloxy)phenyl)-1H-pyrazolo[4,3-c]pyridine]	27.1 µM	4.18		
21.1 µM				C=CC(=O)N1CCC[C@@H](n2nc(-c3ccc(Oc4ccncc4)cc3)c3c(N)ncc(Cl)c32)C1 [BCD-BTK-139, (R)-1-(1-acryloylpiperidin-3-yl)-7-chloro-3-(4-(pyridin-4-yloxy)phenyl)-1H-pyrazolo[4,3-c]pyridin-4-amine]	39.6 µM	3.88		
	0.0552 µM	6.54 µM	7.97 µM	C=CC(=O)N1CCC[C@@H](n2nc(-c3ccc(C(=O)Nc4ccccn4)cc3)c3cncc(Cl)c32)C1 [BCD-BTK-201]			> 50 µM	>4.20
	> 0.5 µM	12.6 µM	8.87 µM	C=CC(=O)N1CCC[C@@H](n2nc(-c3ccc(Oc4ccncc4C#N)cc3)c3cncc(Cl)c32)C1 [BCD-BTK-202, (R)-4-(4-(1-(1-acryloylpiperidin-3-yl)-7-chloro-1H-pyrazolo[4,3-c]pyridin-3-yl)phenoxy)nicotinonitrile]			32 µM	4.10
	> 0.1 µM	14.2 µM	9.46 µM	C=CC(=O)N1CCC[C@@H](n2nc(-c3ccc(Oc4cccnc4C(N)=O)cc3)c3cncc(Cl)c32)C1 [BCD-BTK-220, 3-(4-{7-chloro-1-[(3R)-1-(prop-2-enoyl)piperidin-3-yl]-1H-pyrazolo[4,3-c]pyridin-3-yl}phenoxy)pyridine-2-carboxamide]			> 50 µM	>9.51
	> 0.2 µM	14.4 µM	14.9 µM	C=CC(=O)N1CCC[C@@H](n2nc(-c3ccc(Oc4cccnc4C#N)cc3)c3cncc(F)c32)C1 [BCD-BTK-230, (R)-3-(4-(1-(1-acryloylpiperidin-3-yl)-7-fluoro-1H-pyrazolo[4,3-c]pyridin-3-yl)phenoxy)picolinonitrile]			57.6 µM	5.87
	0.0148 µM	16.8 µM	8.87 µM	C=CC(=O)N1CCC[C@@H](n2nc(-c3ccc(C(=O)Nc4ccccn4)cc3)c3c(N)ncc(C#N)c32)C1 [BCD-BTK-234, (R)-4-(1-(1-acryloylpiperidin-3-yl)-4-amino-7-cyano-1H-pyrazolo[4,3-c]pyridin-3-yl)-N-(pyridine-2-yl)benzamide]			36.6 µM	3.81
	0.006 µM	16 µM	8.18 µM	C=CC(=O)N1CCC[C@@H](n2nc(-c3ccc(Oc4ccncc4)cc3)c3c(N)ncc(OC)c32)C1 [BCD-BTK-239, (R)-1-(1-acryloylpiperidin-3-yl)-4-amine-7-methoxy-3-(4-(pyridin-4-yloxy)phenyl)-1H-pyrazolo[4,3-c]pyridine]			60.2 µM	4.24
	0.00381 µM	10.5 µM	2 µM	C=CC(=O)N1CCC[C@@H](n2nc(-c3ccc(C(=O)Nc4ccccn4)cc3)c3c(N)ncc(OC)c32)C1 [BCD-BTK-240, (R)-4-(1-(1-acryloylpiperidin-3-yl)-4-amino-7-methoxy-1H-pyrazolo[4,3-c]pyridin-3-yl)-N-(pyridin-2-yl)benzamide]			> 100 µM	>7.11
	0.00661 µM	16.5 µM	8.38 µM	C=CC(=O)N1CCC[C@@H](n2nc(-c3ccc(C(=O)Nc4ccccn4)cc3)c3c(N)nccc32)C1 [BCD-BTK-242, (R)-4-(1-(1-acryloylpiperidin-3-yl)-4-amino-1H-pyrazolo[4,3-c]pyridin-3-yl)-N-(pyridin-2-yl)benzamide]			52.5 µM	3.03
	0.00721 µM	4.46 µM	3.38 µM	C=CC(=O)N1CCC[C@@H](n2nc(-c3ccc(C(=O)Nc4cc(C(F)(F)F)ccn4)cc3)c3c(N)ncc(Cl)c32)C1 [BCD-BTK-251, (R)-4-(1-(1-acryloylpiperidin-3-yl)-4-amino-7-chloro-1H-pyrazolo[4,3-c]pyridin-3-yl)-N-(4-(trifluoromethyl)pyridin-2-yl)benzamide]			> 50 µM	>13.70
	> 0.1 µM	14.9 µM	19.6 µM	C=CC(=O)N1CCC[C@@H](n2nc(-c3ccc(C(=O)Nc4cc(C(F)(F)CCC)ccn4)cc3)c3cncc(Cl)c32)C1 [BCD-BTK-252, (R)-4-(1-(1-acryloylpiperidin-3-yl)-7-chloro-1H-pyrazolo[4,3-c]pyridin-3-yl)-N-(4-(1,1-difluorobutyl)pyridin-2-yl)benzamide]			> 100 µM	>22.43
	0.00292 µM	35.8 µM	15.1 µM	C=CC(=O)N1CCC[C@@H](n2nc(-c3ccc(C(=O)Nc4ncccc4F)cc3)c3c(N)ncc(C#N)c32)C1 [BCD-BTK-258, 4-{4-amino-7-cyano-1-[(3R)-1-(prop-2-enoyl)piperidin-3-yl]-1H-pyrazolo[4,3-c]pyridin-3-yl}-N-(3-fluoropyridin-2-yl)benzamide]			> 50 µM	>2.89
	0.0778 µM	> 50 µM	20.7 µM	C=CC(=O)N1CCC[C@@H](n2nc(-c3cnc(C(=O)Nc4cc(C(F)(F)CCC)ccn4)nc3)c3cncc(Cl)c32)C1 [BCD-BTK-292, (R)-5-(1-(1-acryloylpiperidin-3-yl)-7-chloro-1H-pyrazolo[4,3-c]pyridin-3-yl)-N-(4-(1,1-difluorobutyl)pyridin-2-yl)pyrimidine-2-carboxamide]			> 100 µM	>29.81
